Measured values published in US11345712B2, “Protein-targeting compounds and pharmaceutical compositions thereof, and their therapeutic applications” (BioTheryX, Inc., priority 2019, dated 2022).

tested on: MOLM-13 cells; assay: MOLM-13 cell viability assay (CellTiter-Glo); assay type: cell-based; details: Homo sapiens, MOLM-13, 72 h, 3 days, concentration of 1 μM, read-out: Antiproliferative Activity (inhibition, MOLM-13 cell viability)
Outline: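 MOLM-13 AML cells in RPMI 1640 with 10% FBS, seeded at 2,500 cells/well and exposed to compound or DMSO for 3 days at 37° C, 5% CO2. Viability read as CellTiter-Glo luminescence after 10 min shaking.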

`Cc1ccc(NC(=S)NCc2cc3c(s2)C(=O)N(C2CCC(=O)NC2=O)C3)cc1Cl` (centres unmarked) [II-39, 1-(3-chloro-4-methylphenyl)-3-((5-(2,6-dioxopiperidin-3-yl)-6-oxo-5,6-dihydro-4H-thieno[2,3-c]pyrrol-2-yl)methyl)thiourea] and `COc1cc(NC(=O)NCc2cc3c(s2)C(=O)N(C2CCC(=O)NC2=O)C3)ccc1C` (centres unmarked) [II-58, 1-((5-(2,6-dioxopiperidin-3-yl)-6-oxo-5,6-dihydro-4H-thieno[2,3-c]pyrrol-2-yl)methyl)-3-(3-methoxy-4-methylphenyl)urea] cannot be ordered by cytotoxicity at 1 µM: greater than 80% for the first, greater than 80% for the second.

First: Cc1ccc(CNC(=O)NCCc2scc3c2CN(C2CCC(=O)NC2=O)C3=O)cc1Cl (centres unmarked) [II-32, 1-(3-chloro-4-methylbenzyl)-3-(2-(5-(2,6-dioxopiperidin-3-yl)-4-oxo-5,6-dihydro-4H-thieno[3,4-c]pyrrol-1-yl)ethyl)urea]
Second: C=C(C(=O)NCc1scc2c1CN(C1CCC(=O)NC1=O)C2=O)c1ccc(C)c(Cl)c1 (centres unmarked) [II-67, 2-(3-chloro-4-methylphenyl)-N-((5-(2,6-dioxopiperidin-3-yl)-4-oxo-5,6-dihydro-4H-thieno[3,4-c]pyrrol-1-yl)methyl)propenamide]
The cytotoxicity at 1 µM of the first is higher: greater than 80% for the first, less than 25% for the second.

`CC(C)(C)c1ccc(C(=O)C(=O)NCc2cccc3c2C(=O)N(C2CCC(=O)NC2=O)C3=O)cc1` (centres unmarked) [Compound I-48, 2-(4-(tert-butyl)phenyl)-N-((2-(2,6-dioxopiperidin-3-yl)-1,3-dioxoisoindolin-4-yl)methyl)-2-oxoacetamide] and `CC(C)(C)c1ccc(C(=O)C(=O)Nc2cccc3c2CN(C2CCC(=O)NC2=O)C3=O)cc1` (centres unmarked) [Compound I-56, 2-(4-(tert-butyl)phenyl)-N-(2-(2,6-dioxopiperidin-3-yl)-1-oxoisoindolin-4-yl)-2-oxoacetamide] cannot be ordered by cytotoxicity at 1 µM: less than 25% for the first, less than 25% for the second.

First: CC(CCc1ccc(C(C)(C)C)cc1)C(=O)NCc1scc2c1CN(C1CCC(=O)NC1=O)C2=O (centres unmarked) [II-86, 4-(4-(tert-butyl)phenyl)-N-((5-(2,6-dioxopiperidin-3-yl)-4-oxo-5,6-dihydro-4H-thieno[3,4-c]pyrrol-1-yl)methyl)-2-methylbutanamide]
Second: CC(C)(C)c1ccc(CC(=O)NCc2scc3c2CN(C2CCC(=O)NC2=O)C3=O)cc1 (centres unmarked) [II-62, 2-(4-(tert-butyl)phenyl)-N-((5-(2,6-dioxopiperidin-3-yl)-4-oxo-5,6-dihydro-4H-thieno[3,4-c]pyrrol-1-yl)methyl)acetamide]
The cytotoxicity at 1 µM of the first is lower: less than 25% for the first, 25 to 50% for the second.

Compared with `CCN(CC)c1ccc(NC(=O)NCc2cc3c(s2)C(=O)N(C2CCC(=O)NC2=O)C3)cc1C` (centres unmarked) [II-52, 1-(4-(diethylamino)-3-methylphenyl)-3-((5-(2,6-dioxopiperidin-3-yl)-6-oxo-5,6-dihydro-4H-thieno[2,3-c]pyrrol-2-yl)methyl)urea], `CCN(CC)c1cc(NC(=O)NCc2cc3c(s2)C(=O)N(C2CCC(=O)NC2=O)C3)ccc1F` (centres unmarked) [II-97, 1-(3-(diethylamino)-4-fluorophenyl)-3-((5-(2,6-dioxopiperidin-3-yl)-6-oxo-5,6-dihydro-4H-thieno[2,3-c]pyrrol-2-yl)methyl)urea] is higher in cytotoxicity at 1 µM: less than 25% for the first, greater than 80% for the second.

First: Cc1ccc(NCCCCCNCc2scc3c2CN(C2CCC(=O)NC2=O)C3=O)cc1Cl (centres unmarked) [II-64, 3-(1-(((5-((3-chloro-4-methylphenyl)amino)pentyl)amino)methyl)-4-oxo-4H-thieno[3,4-c]pyrrol-5(6H)-yl)piperidine-2,6-dione]
Second: Cc1ccc(CC(=O)NCc2scc3c2CN(C2CCC(=O)NC2=O)C3=O)cc1N(C)C (centres unmarked) [II-68, 2-(3-(dimethylamino)-4-methylphenyl)-N-((5-(2,6-dioxopiperidin-3-yl)-4-oxo-5,6-dihydro-4H-thieno[3,4-c]pyrrol-1-yl)methyl)acetamide]
The cytotoxicity at 1 µM of the first is lower: less than 25% for the first, 25 to 50% for the second.

First: O=C1CCC(N2Cc3c(csc3CNC(=O)C(=O)c3ccc(Cl)c(Cl)c3)C2=O)C(=O)N1 (centres unmarked) [Compound I-24, 2-(3,4-dichlorophenyl)-N-((5-(2,6-dioxopiperidin-3-yl)-4-oxo-5,6-dihydro-4H-thieno[3,4-c]pyrrol-1-yl)methyl)-2-oxoacetamide]
Second: O=C1CCC(N2Cc3c(csc3CNC(=O)C(=O)c3ccccc3)C2=O)C(=O)N1 (centres unmarked) [Compound I-8, 2-phenyl-N-((5-(2,6-dioxopiperidin-3-yl)-4-oxo-5,6-dihydro-4H-thieno[3,4-c]pyrrol-1-yl)methyl)-2-oxoacetamide]
The cytotoxicity at 1 µM of the first is higher: 25 to 50% for the first, less than 25% for the second.

`NC(C(=O)NCc1scc2c1CN(C1CCC(=O)NC1=O)C2=O)c1cccc(Cl)c1` (centres unmarked) [II-89, 2-amino-2-(3-chlorophenyl)-N-((5-(2,6-dioxopiperidin-3-yl)-4-oxo-5,6-dihydro-4H-thieno[3,4-c]pyrrol-1-yl)methyl)acetamide] and `Cc1ccc(C(N)C(=O)NCc2scc3c2CN(C2CCC(=O)NC2=O)C3=O)cc1` (centres unmarked) [II-88, 2-amino-N-((5-(2,6-dioxopiperidin-3-yl)-4-oxo-5,6-dihydro-4H-thieno[3,4-c]pyrrol-1-yl)methyl)-2-(p-tolyl)acetamide] cannot be ordered by cytotoxicity at 1 µM: less than 25% for the first, less than 25% for the second.

`CC(C)c1cccc(NC(=O)NCc2cc3c(s2)C(=O)N(C2CCC(=O)NC2=O)C3)c1` (centres unmarked) [II-70, 1-((5-(2,6-dioxopiperidin-3-yl)-6-oxo-5,6-dihydro-4H-thieno[2,3-c]pyrrol-2-yl)methyl)-3-(3-isopropylphenyl)urea] and `CCN(CC)c1cccc(NC(=O)NCc2cc3c(s2)C(=O)N(C2CCC(=O)NC2=O)C3)c1` (centres unmarked) [II-71, 1-(3-(diethylamino)phenyl)-3-((5-(2,6-dioxopiperidin-3-yl)-6-oxo-5,6-dihydro-4H-thieno[2,3-c]pyrrol-2-yl)methyl)urea] cannot be ordered by cytotoxicity at 1 µM: greater than 80% for the first, greater than 80% for the second.

`N#Cc1ccc(C(=O)C(=O)NCc2cccc3c2CN(C2CCC(=O)NC2=O)C3=O)cc1` (centres unmarked) [Compound I-76, 2-(4-cyanophenyl)-N-((2-(2,6-dioxopiperidin-3-yl)-1-oxoisoindolin-4-yl)methyl)-2-oxoacetamide] and `O=C1CCC(N2Cc3c(CNC(=O)C(=O)c4ccc(Cl)cc4)cccc3C2=O)C(=O)N1` (centres unmarked) [Compound I-77, 2-(4-chlorophenyl)-N-((2-(2,6-dioxopiperidin-3-yl)-1-oxoisoindolin-4-yl)methyl)-2-oxoacetamide] cannot be ordered by cytotoxicity at 1 µM: less than 25% for the first, less than 25% for the second.

Compared with `O=C1CCC(N2Cc3c(CNC(=O)C(=O)c4ccccc4)cccc3C2=O)C(=O)N1` (centres unmarked) [Compound I-74, N-((2-(2,6-dioxopiperidin-3-yl)-1-oxoisoindolin-4-yl)methyl)-2-oxo-2-phenylacetamide], `O=C1CCC(N2Cc3c(CNC(=O)C(=O)c4ccc(F)cc4)cccc3C2=O)C(=O)N1` (centres unmarked) [Compound I-81, 2-(4-fluorophenyl)-N-((2-(2,6-dioxopiperidin-3-yl)-1-oxoisoindolin-4-yl)methyl)-2-oxoacetamide] is higher in cytotoxicity at 1 µM: less than 25% for the first, 25 to 50% for the second.

`O=C1CCC(N2Cc3c(csc3CNC(=O)C(=O)c3ccc(C4CC4)cc3)C2=O)C(=O)N1` (centres unmarked) [Compound I-12, 2-(4-cyclopropylphenyl)-N-((5-(2,6-dioxopiperidin-3-yl)-4-oxo-5,6-dihydro-4H-thieno[3,4-c]pyrrol-1-yl)methyl)-2-oxoacetamide] and `CC(C)(CO)c1ccc(C(=O)C(=O)NCc2scc3c2CN(C2CCC(=O)NC2=O)C3=O)cc1` (centres unmarked) [Compound I-43, N-((5-(2,6-dioxopiperidin-3-yl)-4-oxo-5,6-dihydro-4H-thieno[3,4-c]pyrrol-1-yl)methyl)-2-(4-(1-hydroxy-2-methylpropan-2-yl)phenyl)-2-oxoacetamide] cannot be ordered by cytotoxicity at 1 µM: less than 25% for the first, less than 25% for the second.

`Cc1cnc(NC(=O)NCc2scc3c2CN(C2CCC(=O)NC2=O)C3=O)nc1C(F)(F)F` (centres unmarked) [II-40, 1-((5-(2,6-dioxopiperidin-3-yl)-4-oxo-5,6-dihydro-4H-thieno[3,4-c]pyrrol-1-yl)methyl)-3-(5-methyl-4-(trifluoromethyl)pyrimidin-2-yl)urea] and `CC(C)(C)c1ccc(C(O)(C(=O)NCc2scc3c2CN(C2CCC(=O)NC2=O)C3=O)C(F)(F)F)cc1` (centres unmarked) [II-133, 2-(4-(tert-butyl)phenyl)-N-((5-(2,6-dioxopiperidin-3-yl)-4-oxo-5,6-dihydro-4H-thieno[3,4-c]pyrrol-1-yl)methyl)-3,3,3-trifluoro-2-hydroxypropanamide] cannot be ordered by cytotoxicity at 1 µM: less than 25% for the first, less than 25% for the second.

Going from `Cc1ccc(NC(=O)NCc2cc3c(s2)C(=O)N(C2CCC(=O)N(COC(=O)[C@H](N)C(C)C)C2=O)C3)cc1Cl` (stereo partly drawn) [II-82, (3-(2-((3-(3-chloro-4-methylphenyl)ureido)methyl)-6-oxo-4,6-dihydro-5H-thieno[2,3-c]pyrrol-5-yl)-2,6-dioxopiperidin-1-yl)methyl D-valinate] to `Cc1ccc(C=CC(=O)NCc2cc3c(s2)C(=O)N(C2CCC(=O)NC2=O)C3)cc1Cl` (centres unmarked) [II-33, 3-(3-chloro-4-methylphenyl)-N-((5-(2,6-dioxopiperidin-3-yl)-6-oxo-5,6-dihydro-4H-thieno[2,3-c]pyrrol-2-yl)methyl)propenamide], the cytotoxicity at 1 µM falls from greater than 80% to less than 25%.

`O=C1CCC(N2Cc3cc(CNC(=O)Nc4cccc(N5CCCC5)c4)sc3C2=O)C(=O)N1` (centres unmarked) [II-99, 1-((5-(2,6-dioxopiperidin-3-yl)-6-oxo-5,6-dihydro-4H-thieno[2,3-c]pyrrol-2-yl)methyl)-3-(3-(pyrrolidin-1-yl)phenyl)urea] and `COc1cccc(C(=O)C(=O)NCc2ccc3c(c2)CN(C2CCC(=O)NC2=O)C3=O)c1` (centres unmarked) [Compound I-95, N-((2-(2,6-dioxopiperidin-3-yl)-1-oxoisoindolin-5-yl)methyl)-2-(3-methoxyphenyl)-2-oxoacetamide] cannot be ordered by cytotoxicity at 1 µM: greater than 80% for the first, greater than 80% for the second.

`CC(C)c1ccc(C(C(=O)NCc2scc3c2CN(C2CCC(=O)NC2=O)C3=O)C(C)C)cc1` (centres unmarked) [II-106, N-((5-(2,6-dioxopiperidin-3-yl)-4-oxo-5,6-dihydro-4H-thieno[3,4-c]pyrrol-1-yl)methyl)-2-(4-isopropylphenyl)-3-methylbutanamide] and `O=C1CCC(N2Cc3c(CNC(=O)C(=O)c4ccc(Br)cc4)cccc3C2=O)C(=O)N1` (centres unmarked) [Compound I-106, 2-(4-bromophenyl)-N-((2-(2,6-dioxopiperidin-3-yl)-1-oxoisoindolin-4-yl)methyl)-2-oxoacetamide] cannot be ordered by cytotoxicity at 1 µM: less than 25% for the first, less than 25% for the second.
